The source made the active and inactive calls. The calls are words filed in the database; no cut-off is given here.
Key:
[1] = Binding affinity to Zn2+ assessed as compound-metal complex formation at compound to metal ratio of 1:0, 1:1, 2:1, 3:1, 4:1 and 5:1 after 30 mins by UV-visible spectrophotometry
[2] = Binding affinity to Cu2+ assessed as compound-metal complex formation at compound to metal ratio of 1:0, 1:1, 2:1, 3:1, 4:1 and 5:1 after 30 mins by UV-visible spectrophotometry
HCT-116 [3] = test: Induction of reactive oxygen species generation in p53 expressing human HCT116 cells at 2 times IC50 for 24 hrs by inverted fluorescent microscopy; assay type: functional, cell-based
HCT-116 [4] = test: Induction of apoptosis in p53 expressing human HCT116 cells assessed as caspase-3/7 activation at IC50 after 30 to 48 hrs by luminescence assay; assay type: functional, cell-based
HCT-116 [5] = test: Induction of apoptosis in p53 deficient human HCT116 cells assessed as caspase-3/7 activation at IC50 after 30 to 48 hrs by luminescence assay; assay type: functional, cell-based
HCT-116 [6] = test: Induction of apoptosis in p53 expressing human HCT116 cells assessed as early apoptotic cells at IC50 after 48 hrs by acridine orange/ethidium bromide staining-based epifluorescence microscopy; assay type: functional, cell-based
HCT-116 [7] = test: Induction of apoptosis in p53 expressing human HCT116 cells assessed as late apoptotic cells at IC50 after 48 hrs by acridine orange/ethidium bromide staining-based epifluorescence microscopy; assay type: functional, cell-based
Calf thymus DNA = test: Binding affinity to calf thymus DNA assessed as hypochromism at 3 to 25 uM after 1.5 hrs by UV-visible spectrophotometry; assay type: nucleic-acid assay; conditions: Bos taurus
[8] = Antiproliferative activity against p53 expressing human HCT116 cells after 96 hrs by MTS assay; assay type: functional, cell-based; conditions: HCT-116, 96 h
[9] = Antiproliferative activity against p53 deficient human HCT116 cells after 96 hrs by MTS assay; assay type: functional, cell-based; conditions: HCT-116, 96 h
NHDF = test: Cytotoxicity against human NHDF cells after 96 hrs by MTS assay; assay type: cell-based
[10] = Antiproliferative activity against p53 expressing human HCT116 cells at IC50 after 96 hrs by MTS assay in presence of 20 uM CuCl2; assay type: functional, HCT-116
HCT-116 [11] = test: Antiproliferative activity against p53 expressing human HCT116 cells at IC50 after 96 hrs by MTS assay in presence of 50 uM of ZnCl2; assay type: functional, cell-based
HCT-116 [12] = test: Induction of intracellular reactive oxygen species generation in p53 expressing human HCT116 cells at IC50 after 6 hrs by fluorescence-based plate reader analysis; assay type: functional, cell-based
HCT-116 [13] = test: Decrease in GSH level in p53 expressing human HCT116 cells at IC50 after 12 hrs by luminescence analysis; assay type: functional, cell-based
HCT-116 [14] = test: Antiproliferative activity against p53 expressing human HCT116 cells at IC50 after 3 to 96 hrs by MTS assay in presence of 10 to 50 uM glucose; assay type: functional, cell-based
HCT-116 [15] = test: Induction of intracellular reactive oxygen species generation in p53 expressing human HCT116 cells at IC50 after 12 hrs by fluorescence-based plate reader analysis; assay type: functional, cell-based
[16] = Antiproliferative activity against p53 deficient human HCT116 cells at IC50 after 96 hrs by MTS assay in presence of 20 uM CuCl2; assay type: functional, HCT-116
HCT-116 [17] = test: Antiproliferative activity against p53 deficient human HCT116 cells at IC50 after 96 hrs by MTS assay in presence of 50 uM ZnCl2; assay type: functional, cell-based

For `CC(=O)OC[C@H]1O[C@@H](Sc2ccc(NC(=O)c3ccc4ccc(C)nc4c3O)cc2)[C@H](OC(C)=O)[C@@H](OC(C)=O)[C@@H]1OC(C)=O`, the Activity [1] was “Active”, the Activity [2] was “Active” and the Activity (HCT-116 [3]) was “Active”. The Activity (HCT-116 [4]) was “inactive”, the Activity (HCT-116 [5]) was “inactive” and the Activity (HCT-116 [6]) was “Active”. For the same compound, the Activity (HCT-116 [7]) was “Active”, the Activity (Calf thymus DNA) was 10.7% and the IC50 [8] was 12 µM. For the same compound, the IC50 [9] was 10.7 µM and the IC50 (NHDF) was 12.4 µM.

With `Cc1ccc2ccc(C(=O)N[C@@H]3O[C@H](CO)[C@@H](O)[C@H](O)[C@H]3O)c(O)c2n1` the IC50 [8] was over 750 µM and the IC50 [9] was over 750 µM.

Work on `Cc1ccc2c(O)c(C(=O)O)ccc2n1` yielded an IC50 [8] of over 750 µM and an IC50 [9] of over 750 µM.

For `CC(=O)OC[C@H]1O[C@@H](N)[C@H](OC(C)=O)[C@@H](OC(C)=O)[C@@H]1OC(C)=O`, the IC50 [8] was over 450 µM and the IC50 [9] was over 300 µM.

For `CC(=O)OC[C@H]1O[C@@H](NC(=O)c2ccc3ccc(C)nc3c2O)[C@H](OC(C)=O)[C@@H](OC(C)=O)[C@@H]1OC(C)=O`, the Activity [10] was 50%, the Activity (HCT-116 [11]) was “inactive” and the Activity [1] was “Active”. The Activity [2] was “Active”, the Activity (HCT-116 [3]) was “Active” and the Activity (HCT-116 [12]) was “Active”. For the same compound, the Activity (HCT-116 [13]) was “Active”, the Activity (HCT-116 [4]) was “Active” and the Activity (HCT-116 [6]) was “Active”. For the same compound, the Activity (HCT-116 [7]) was “Active”, the Activity (Calf thymus DNA) was 16.2% and the IC50 [8] was 13.6 µM. For the same compound, the IC50 [9] was 15.1 µM and the IC50 (NHDF) was 23.6 µM.

`CC(=O)OC[C@H]1O[C@@H](Sc2ccc(NC(=O)c3ccc4nc(C)ccc4c3O)cc2)[C@H](OC(C)=O)[C@@H](OC(C)=O)[C@@H]1OC(C)=O` gave an IC50 [8] of over 25 µM and an IC50 [9] of over 25 µM.

With `CC(=O)OC[C@H]1O[C@@H](Sc2ccc(N)cc2)[C@H](OC(C)=O)[C@@H](OC(C)=O)[C@@H]1OC(C)=O` the IC50 [8] was over 150 µM and the IC50 [9] was over 150 µM.

For `Cc1ccc2ccc(C(=O)N[C@@H]3O[C@H](COCc4ccccc4)[C@H](OCc4ccccc4)[C@H](OCc4ccccc4)[C@H]3OCc3ccccc3)c(O)c2n1`, the Activity (HCT-116 [14]) was “inactive”, the Activity [1] was “Active” and the Activity [2] was “Active”. For the same compound, the Activity (HCT-116 [3]) was “Active”, the Activity (HCT-116 [15]) was “Active” and the Activity (HCT-116 [13]) was “Active”. The Activity (HCT-116 [4]) was “Active”, the Activity (HCT-116 [5]) was “Active” and the Activity (HCT-116 [6]) was “Active”. The Activity (HCT-116 [7]) was “Active”, the Activity (Calf thymus DNA) was 9% and the IC50 [8] was 11.6 µM. The IC50 [9] was 11.7 µM and the IC50 (NHDF) was 18.6 µM.

With `CC(=O)OC[C@H]1O[C@@H](SC(=O)c2ccc3ccc(C)nc3c2O)[C@H](OC(C)=O)[C@@H](OC(C)=O)[C@H]1OC(C)=O` the IC50 [8] was over 25 µM and the IC50 [9] was over 25 µM.

`CC(=O)OC[C@H]1O[C@@H](Sc2ccc(N)cn2)[C@H](OC(C)=O)[C@@H](OC(C)=O)[C@@H]1OC(C)=O` gave an IC50 [8] of over 150 µM and an IC50 [9] of over 150 µM.

For `COc1cccc2c1C(=O)c1c(O)c3c(c(O)c1C2=O)C[C@@](O)(C(=O)CO)C[C@@H]3O[C@H]1C[C@H](N)[C@H](O)[C@H](C)O1` [DOXORUBICIN], the IC50 [8] was 0.34 µM, the IC50 [9] was 0.38 µM and the IC50 (NHDF) was 3.38 µM.

Work on `CC(=O)OC[C@H]1O[C@@H](Sc2ccc(N)cc2)[C@H](OC(C)=O)[C@@H](OC(C)=O)[C@H]1OC(C)=O` yielded an IC50 [8] of over 150 µM and an IC50 [9] of over 150 µM.

For `CC(=O)OC[C@H]1O[C@@H](Sc2ccc(NC(=O)c3ccc4ccc(C)nc4c3O)cn2)[C@H](OC(C)=O)[C@@H](OC(C)=O)[C@@H]1OC(C)=O`, the Activity (HCT-116 [14]) was “inactive”, the Activity [16] was 75% and the Activity (HCT-116 [17]) was “inactive”. For the same compound, the Activity [1] was “Active”, the Activity [2] was “Active” and the Activity (HCT-116 [3]) was “Active”. For the same compound, the Activity (HCT-116 [15]) was “Active”, the Activity (HCT-116 [13]) was “Active” and the Activity (HCT-116 [4]) was “inactive”. The Activity (HCT-116 [5]) was “inactive”, the Activity (HCT-116 [6]) was “Active” and the Activity (HCT-116 [7]) was “Active”. It also gave an Activity (Calf thymus DNA) of 41.5%, an IC50 [8] of 4.88 µM and an IC50 [9] of 4.42 µM. For the same compound, the IC50 (NHDF) was 11.5 µM.

Compound `CC(=O)OC[C@H]1O[C@@H](SC(=O)c2ccc3nc(C)ccc3c2O)[C@H](OC(C)=O)[C@@H](OC(C)=O)[C@H]1OC(C)=O` has an IC50 [8] of over 25 µM and an IC50 [9] of over 25 µM.

For `CC(=O)OC[C@H]1O[C@@H](S)[C@H](OC(C)=O)[C@@H](OC(C)=O)[C@@H]1OC(C)=O`, the IC50 [8] was over 750 µM and the IC50 [9] was over 500 µM.

`CC(=O)OC[C@H]1O[C@@H](SC(=O)c2ccc3ccc(C)nc3c2O)[C@H](OC(C)=O)[C@@H](OC(C)=O)[C@@H]1OC(C)=O` gave an IC50 [8] of over 25 µM and an IC50 [9] of over 25 µM.

`CC(=O)OC[C@H]1O[C@@H](SC(=O)c2ccc3nc(C)ccc3c2O)[C@H](OC(C)=O)[C@@H](OC(C)=O)[C@@H]1OC(C)=O` gave an IC50 [8] of over 25 µM and an IC50 [9] of over 25 µM.

In the case of `CC(=O)OC[C@H]1O[C@@H](Sc2ccc(N)cn2)[C@H](OC(C)=O)[C@@H](OC(C)=O)[C@H]1OC(C)=O`, the IC50 [8] is reported as over 150 µM and the IC50 [9] is reported as over 150 µM.

Work on `Cc1ccc2ccc(C(=O)O)c(O)c2n1` yielded an IC50 [8] of over 750 µM and an IC50 [9] of over 750 µM.

With `CC(=O)OC[C@H]1O[C@@H](Sc2ccc(NC(=O)c3ccc4ccc(C)nc4c3O)cc2)[C@H](OC(C)=O)[C@@H](OC(C)=O)[C@H]1OC(C)=O` the Activity (HCT-116 [14]) was “inactive”, the Activity [1] was “Active” and the Activity [2] was “Active”. The Activity (HCT-116 [3]) was “Active”, the Activity (HCT-116 [4]) was “Active” and the Activity (HCT-116 [6]) was “Active”. For the same compound, the Activity (HCT-116 [7]) was “Active”, the Activity (Calf thymus DNA) was 17.2% and the IC50 [8] was 12.6 µM. It also gave an IC50 [9] of 8.94 µM and an IC50 (NHDF) of 13.3 µM.

With `CC(=O)OC[C@H]1O[C@@H](Sc2ccc(NC(=O)c3ccc4ccc(C)nc4c3O)cn2)[C@H](OC(C)=O)[C@@H](OC(C)=O)[C@H]1OC(C)=O` the Activity (HCT-116 [14]) was “inactive”, the Activity [1] was “Active” and the Activity [2] was “Active”. For the same compound, the Activity (HCT-116 [3]) was “Active”, the Activity (HCT-116 [4]) was “inactive” and the Activity (HCT-116 [5]) was “inactive”. The Activity (HCT-116 [6]) was “Active”, the Activity (HCT-116 [7]) was “Active” and the Activity (Calf thymus DNA) was 26.1%. It also gave an IC50 [8] of 7.86 µM, an IC50 [9] of 7.05 µM and an IC50 (NHDF) of 9.32 µM.
